According to patent publication US20230322770A1, “SUBSTITUTED HETEROARYL COMPOUNDS USEFUL AS INHIBITORS OF TLR9” (BRISTOL-MYERS SQUIBB COMPANY, priority 2020, published 2023):

What was measured:
Format in all cases: cell-based
human TLR7 = target: T1, human TLR7 (Homo sapiens, UniProt Q9NYK1); experiment: TLR7 inhibition reporter assay (HEK-Blue cells, SEAP reporter); settings: HEK-Blue cells overexpressing human TLR7; stimulated with gardiquimod 7.5 μM; SEAP after 22 hour incubation
T1 construct: host or cells: HEK-Blue cells (HEK293-derived reporter line)
T1 sequence (Q9NYK1 27-1049): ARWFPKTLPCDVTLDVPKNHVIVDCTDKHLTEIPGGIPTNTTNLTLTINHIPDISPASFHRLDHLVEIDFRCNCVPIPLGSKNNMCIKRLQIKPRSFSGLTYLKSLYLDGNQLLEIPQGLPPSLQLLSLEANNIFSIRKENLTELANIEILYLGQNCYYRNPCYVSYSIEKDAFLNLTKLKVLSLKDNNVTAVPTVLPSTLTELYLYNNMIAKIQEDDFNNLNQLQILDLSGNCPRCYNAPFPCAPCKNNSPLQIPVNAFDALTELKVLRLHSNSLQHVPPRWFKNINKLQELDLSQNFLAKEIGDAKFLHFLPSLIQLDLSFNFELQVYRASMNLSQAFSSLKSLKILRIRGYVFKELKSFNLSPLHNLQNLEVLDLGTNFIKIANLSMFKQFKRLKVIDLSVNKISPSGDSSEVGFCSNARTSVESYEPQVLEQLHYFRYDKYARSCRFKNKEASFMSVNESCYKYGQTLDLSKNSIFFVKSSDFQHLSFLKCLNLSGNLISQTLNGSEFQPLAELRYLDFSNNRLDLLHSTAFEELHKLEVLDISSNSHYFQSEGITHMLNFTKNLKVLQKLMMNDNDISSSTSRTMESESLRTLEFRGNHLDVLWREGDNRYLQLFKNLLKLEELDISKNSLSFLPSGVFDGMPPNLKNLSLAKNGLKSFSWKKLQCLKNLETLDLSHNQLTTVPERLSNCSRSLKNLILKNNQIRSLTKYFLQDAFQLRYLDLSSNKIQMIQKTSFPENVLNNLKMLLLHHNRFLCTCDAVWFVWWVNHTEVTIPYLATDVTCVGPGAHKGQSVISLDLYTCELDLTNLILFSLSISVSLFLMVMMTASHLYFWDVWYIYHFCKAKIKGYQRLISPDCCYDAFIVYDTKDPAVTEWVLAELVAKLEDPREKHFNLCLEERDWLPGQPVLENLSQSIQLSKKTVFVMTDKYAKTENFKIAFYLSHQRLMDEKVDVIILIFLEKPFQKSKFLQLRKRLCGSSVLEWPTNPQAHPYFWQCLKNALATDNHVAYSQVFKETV
Method: (§1) TLR7/8/9 Inhibition Reporter Assays
(§2) HEK-Blue™-cells (Invivogen) overexpressing human TLR7, TLR8 or TLR9 receptors were used for screening inhibitors of these receptors using an inducible SEAP (secreted embryonic alkaline phosphatase) reporter gene under the control of the IFN-β minimal promoter fused to five NF-κB and AP-1-binding sites. Briefly, cells are seeded into Greiner 384 well plates (15000 cells per well for TLR7, 20,000 for TLR8 and 25,000 for TLR9) and then treated with test compounds in DMSO to yield a final dose response concentration range of 0.05 nM-50 μM. After a 30 minute compound pre-treatment at room temperature, the cells are then stimulated with a TLR7 ligand (gardiquimod at a final concentration of 7.5 μM), TLR8 ligand (R848 at a final concentration of 15.9 μM) or TLR9 ligand (ODN2006 at a final concentration of 5 nM) to activate NF-κB and AP-1 which induce the production of SEAP. After a 22 hour incubation at 37° C., 5% CO2, SEAP levels are determined with the addition of HEK-Blue™ Detection reagent (Invivogen), a cell culture medium that allows for detection of SEAP, according to manufacturer's specifications. The percent inhibition is determined as the % reduction in the HEK-Blue signal present in wells treated with agonist plus DMSO alone compared to wells treated with a known inhibitor.

human TLR8 = target: T2, human TLR8 (Homo sapiens, UniProt Q9NR97); experiment: TLR8 inhibition reporter assay (HEK-Blue cells, SEAP reporter); settings: HEK-Blue cells overexpressing human TLR8; stimulated with R848 15.9 μM; SEAP after 22 hour incubation
T2 construct: host or cells: HEK-Blue cells (HEK293-derived reporter line)
T2 sequence (Q9NR97 27-1041): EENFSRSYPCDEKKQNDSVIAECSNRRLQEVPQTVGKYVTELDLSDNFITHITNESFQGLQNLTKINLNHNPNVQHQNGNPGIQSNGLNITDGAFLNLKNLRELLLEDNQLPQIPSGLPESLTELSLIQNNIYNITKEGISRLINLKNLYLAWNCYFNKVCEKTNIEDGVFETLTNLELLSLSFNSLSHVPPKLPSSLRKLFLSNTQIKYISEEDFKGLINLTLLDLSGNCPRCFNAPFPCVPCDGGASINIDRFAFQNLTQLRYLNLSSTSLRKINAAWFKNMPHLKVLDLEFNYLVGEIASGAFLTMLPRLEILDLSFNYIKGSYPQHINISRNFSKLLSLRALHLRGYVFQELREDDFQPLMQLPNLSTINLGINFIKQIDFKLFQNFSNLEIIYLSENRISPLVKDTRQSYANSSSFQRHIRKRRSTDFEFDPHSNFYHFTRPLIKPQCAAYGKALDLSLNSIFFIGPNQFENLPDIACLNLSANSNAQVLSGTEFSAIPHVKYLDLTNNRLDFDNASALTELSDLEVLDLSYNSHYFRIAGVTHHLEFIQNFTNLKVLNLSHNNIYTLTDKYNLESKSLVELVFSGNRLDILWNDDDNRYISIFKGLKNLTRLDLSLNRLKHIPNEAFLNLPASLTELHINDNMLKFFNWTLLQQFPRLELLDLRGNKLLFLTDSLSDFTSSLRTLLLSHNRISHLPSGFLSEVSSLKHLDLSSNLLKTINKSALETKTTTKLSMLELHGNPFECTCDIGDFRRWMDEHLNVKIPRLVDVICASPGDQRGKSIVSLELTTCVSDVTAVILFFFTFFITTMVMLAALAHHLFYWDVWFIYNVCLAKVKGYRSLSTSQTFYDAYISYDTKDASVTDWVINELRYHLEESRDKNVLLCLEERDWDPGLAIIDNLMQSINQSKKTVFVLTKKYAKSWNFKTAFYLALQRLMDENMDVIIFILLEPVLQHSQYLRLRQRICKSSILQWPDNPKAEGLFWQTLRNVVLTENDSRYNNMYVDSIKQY
Method: as §1, §2

human TLR9 = target: T3, human TLR9 (Homo sapiens, UniProt Q9NR96); experiment: TLR9 inhibition reporter assay (HEK-Blue cells, SEAP reporter); settings: HEK-Blue cells overexpressing human TLR9; stimulated with ODN2006 5 nM; SEAP after 22 hour incubation
T3 construct: host or cells: HEK-Blue cells (HEK293-derived reporter line)
T3 sequence (Q9NR96 26-1032): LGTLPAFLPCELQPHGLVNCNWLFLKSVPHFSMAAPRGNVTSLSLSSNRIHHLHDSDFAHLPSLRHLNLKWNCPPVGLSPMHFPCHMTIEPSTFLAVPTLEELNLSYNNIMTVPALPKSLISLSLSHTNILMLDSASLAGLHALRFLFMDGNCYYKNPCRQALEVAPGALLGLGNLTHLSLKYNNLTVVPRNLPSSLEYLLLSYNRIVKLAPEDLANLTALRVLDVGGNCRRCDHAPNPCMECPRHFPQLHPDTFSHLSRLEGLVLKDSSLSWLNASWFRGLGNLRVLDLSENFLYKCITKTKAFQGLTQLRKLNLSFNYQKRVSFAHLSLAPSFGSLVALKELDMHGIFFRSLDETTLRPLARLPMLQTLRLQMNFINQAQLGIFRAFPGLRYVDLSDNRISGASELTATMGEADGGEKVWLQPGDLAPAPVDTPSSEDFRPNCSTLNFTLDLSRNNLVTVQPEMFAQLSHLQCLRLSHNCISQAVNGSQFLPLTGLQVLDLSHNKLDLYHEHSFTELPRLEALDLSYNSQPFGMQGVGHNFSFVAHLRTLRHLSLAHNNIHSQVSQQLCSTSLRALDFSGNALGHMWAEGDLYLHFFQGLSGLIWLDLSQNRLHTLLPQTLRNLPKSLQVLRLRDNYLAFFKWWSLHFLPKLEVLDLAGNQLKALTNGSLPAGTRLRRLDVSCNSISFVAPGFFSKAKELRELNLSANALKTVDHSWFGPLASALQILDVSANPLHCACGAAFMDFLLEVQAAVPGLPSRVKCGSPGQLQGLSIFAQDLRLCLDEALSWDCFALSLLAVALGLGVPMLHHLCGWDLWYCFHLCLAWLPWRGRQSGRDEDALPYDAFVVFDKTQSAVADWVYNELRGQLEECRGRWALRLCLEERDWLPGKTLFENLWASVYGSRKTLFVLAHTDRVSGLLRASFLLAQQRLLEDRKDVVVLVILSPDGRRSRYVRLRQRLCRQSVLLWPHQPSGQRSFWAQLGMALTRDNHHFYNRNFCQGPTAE
Method: as §1, §2

SMILES	IC50 (human TLR7) [µM]	IC50 (human TLR8) [µM]	IC50 (human TLR9) [µM]
CC(C)N1CCN(c2ccc(-c3cnc4cc(-c5ccc(S(C)(=O)=O)cc5)n(C)c4c3)cc2)C[C@H]1C [Example 32]	11.4	15.1	0.243
CC(C)N1CCN(c2ccc(-c3cnc4cc(-c5ccc(S(C)(=O)=O)cc5)n(C)c4c3)cc2)[C@@H](C)C1 [Example 30]	4.8	5.3	0.576
CC(C)N1CCN(c2ccc(-c3cnc4cc(-c5cccc(S(=O)(=O)N(C)C)c5)n(C)c4c3)cc2)CC1 [Example 40]	8.1	2.1	0.076
CC(C)N1C[C@@H](C)N(c2ccc(-c3cnc4cc(-c5ccc(S(C)(=O)=O)cc5)n(C)c4c3)cc2)[C@@H](C)C1 [Example 33]	3.8	4.2	0.383
COc1ccc(-c2cc3ccc(-c4ccc(N5CCN(C(C)C)CC5)cc4)nc3n2C)cc1OC [Example 7, 2-(3,4-Dimethoxyphenyl)-6-(4-(4-isopropylpiperazin-1-yl)phenyl)-1-methyl-1H-pyrrolo[2,3-b]pyridine]	≥ 50	≥ 50	4.58
CC(C)N1C2CCC1CN(c1ccc(-c3cnc4cc(-c5ccc(S(C)(=O)=O)cc5F)n(C)c4c3)cc1)C2 [Example 43]	> 50	7.8	0.292
Cn1c(-c2ccc(S(C)(=O)=O)cc2F)cc2ncc(-c3ccc(N4CCN(C5CC5)CC4)cc3)cc21 [Example 45]			> 50

Next, values leading:

IC50 (human TLR7) [µM]	IC50 (human TLR8) [µM]	IC50 (human TLR9) [µM]	SMILES
7.9	4.3	0.663	Cn1c(-c2ccc(S(C)(=O)=O)cc2)cc2ncc(-c3ccc(CN4CCN(CCC(C)(C)O)CC4)cc3)cc21 [Example 19, 2-Methyl-4-(4-(4-(1-methyl-2-(4-(methylsulfonyl)phenyl)-1H-pyrrolo[3,2-b]pyridin-6-yl)benzyl)piperazin-1-yl)butan-2-ol]
1.1	> 50	0.41	CC(C)CN1[C@@H]2CC[C@H]1C[C@@H](N1CCC(c3cnc4cc(-c5ccc(S(=O)(=O)C6CC6)cc5)n(C)c4c3)CC1)C2 [Example 37, 2-(4-cyclopropylsulfonylphenyl)-1-methyl-6-[1-[rac-(1S,5R)-8-isobutyl-8-azabicyclo[3.2.1]octan-3-yl]-4-piperidyl]pyrrolo[3,2-b]pyridine]
> 50	43.8	0.212	CCN1CCN(Cc2ccc(-c3cnc4cc(-c5ccc(S(C)(=O)=O)cc5)n(C)c4c3)cc2)CC1 [Example 25]
2.7	7.6	0.139	CC(C)N1CCN(c2ccc(-c3cnc4cc(-c5ccc(S(C)(=O)=O)cc5)n(C)c4c3)cc2)CC1 [Example 2, 6-(4-(4-Isopropylpiperazin-1-yl)phenyl)-1-methyl-2-(4-(methylsulfonyl)phenyl)-1H-pyrrolo[3,2-b]pyridine]
3.3	2.3	0.722	CC(C)N1CCN(c2ccc(-c3cnc4cc(-c5ccc(S(C)(=O)=O)cc5)n(C)c4c3)cc2)C[C@@H]1C [Example 29]
7	7.2	0.094	COc1ccc(-c2cc3ncc(-c4ccc(N5CCN(C(C)C)CC5)cc4)cc3n2C)cc1OC [Example 1, 2-(3,4-Dimethoxyphenyl)-6-(4-(4-isopropylpiperazin-1-yl)phenyl)-1-methyl-1H-pyrrolo[3,2-b]pyridine]
9.7	11.1	0.018	CC(C)N1CCN(c2ccc(-c3cc4nc(-c5ccc(S(C)(=O)=O)cc5)cc-4n(C)c3)cc2)CC1 [Example 3, 6-(4-(4-isopropylpiperazin-1-yl)phenyl)-4-methyl-2-(4-(methylsulfonyl)phenyl)-4H-pyrrolo[3,2-b]pyridine]
9.6	8.1	0.206	Cn1c(-c2ccc(S(C)(=O)=O)cc2)cc2ncc(-c3ccc(CN4CCN(CC(C)(C)O)CC4)cc3)cc21 [Example 21]
> 50	23.2	0.069	CC(C)N1CCN(Cc2ccc(-c3cnc4cc(-c5ccc(S(C)(=O)=O)cc5)n(C)c4c3)cc2)CC1 [Example 23]
		0.094	CC(C)N1C2CCC1CN(c1ccc(-c3cnc4cc(-c5ccc(S(C)(=O)=O)cc5)n(C)c4c3)cc1)C2 [Example 26]
